“And” between values parts separate entries of the source, which are not always exact repeats. Equal values may be shown once. “Also recorded” adds a separate entry of the source.
Tests used:
[1] = system: Hs746T gastric tumour cells; assay: in vitro activity on gastric tumour cells; format: cell-based, human
Procedure: Different model systems were evaluated to provide the basis for further clinical work. Selective antitumour activities were seen against two histologically different solid tumours: human gastric and prostate carcinomas. Potent in vitro activity to primary gastric tumour specimens or Hs746T gastric tumour cells is evident with IC30 values of 146 and 450 pM, respectively. […] activities were evaluated in nude rodents using sc implanted tumour fragments or hollow fibres (HF) containing tumour cells.

VEGF promoter = VEGF promoter luciferase reporter in MOLT-4 cells; format: cell-based, human; conditions: luciferase after 24 hours vs renilla
Procedure: Cells were transfected with the VEGF promoter (spanning the first 1000 bases upstream the starting site linked to luciferase reporter gene and with a control plasmid containing the renilla reporter gene. Cells were then treated with different concentrations of aplidine and luciferase activity was measured after 24 hours and compared to renilla activity.

MOLT-4 = assay: apoptosis in leukaemia cell line; format: cell-based, human
cardiac H9 c2 (2-1) = assay: CellTiter96 (MTS) in vitro cytotoxicity assay; format: cell-based
From the text: (§1) In fact, the dose limiting toxicity in humans is skeletal muscle atrophy.

kidney (NRK-52E) cells = assay: CellTiter96 (MTS) in vitro cytotoxicity assay; format: cell-based
From the text: as §1

liver (AML-12) = assay: CellTiter96 (MTS) in vitro cytotoxicity assay; format: cell-based
From the text: as §1

[2] = system: myelogenous stem cells (FDC-P1); assay: CellTiter96 (MTS) in vitro cytotoxicity assay; format: cell-based
From the text: as §1

skeletal muscle (L8) = assay: CellTiter96 (MTS) in vitro cytotoxicity assay; format: cell-based
From the text: as §1

[3] = Phase I, 24 h infusion weekly x3 q4wk: toxicity and pharmacokinetics; format: in vivo, human
Procedure: A phase I trial was performed using 24 hour infusion weekly×3 followed by 1 wk rest. 32 patients (median age 58 yrs, median ECOG 1) with advanced, previously treated solid tumours have been treated. They have received 64 courses (median/pt: 2 (1-6)) across 8 dose levels: 133 (3 pts), 266 (3 pts), 532 (3 pts), 1000 (3 pts), 2000 (3 pts), 3000 (3 pts), 4500 (4 pts) and 3750 mcg/m^2/wk (10 pts). 2 out of 3 evaluable patients had DLT at 4500 mcg/m^2/wk: grade (G) 4 reversible neuromuscular toxicity (biopsy prevent type II muscular atrophy) and G4 CK increase (1 pt), and transient G3 transaminitis (1 pt). Other toxicities included G 1-2 malaise (most patients treated at ≧3000 mcg/m^2/wk), muscle cramps, G 1-2 emesis (responsive to antiemetics) and injection site reaction (very common and concentration-dependent). All patients have been sampled for PK analysis by a LC/MS/MS method. Pharmacokinetics are linear and the profiles fit a 2 compartment open model. […] Maintained plasma levels >1 ng/ml (active in vitro) were obtained at doses ≧3000 mcg/m^2. […] Four additional patients had minor responses or stable disease for >4 months. […] The recommended dose for future trials, 3750 mcg/m^2/wk×3, administered through a central vein catheter, is feasible and associated with mild toxicity.
Plasma aplidine concentrations were determined by liquid chromatography/tandem mass spectography with a limit of quantitation of 0.25 ng/mL and a broad linear range up to 16.00 ng/mL
A total of 15 samples were drawn up to 24 hours after the end of infusion

[4] = Clinical pharmacokinetics across phase I schedules; format: in vivo, human; conditions: plasma PK, initial results
Procedure: […] intravenous schedules are under phase I evaluation: weekly 24 h infusion, biweekly 24 h infusion and 5 consecutive days 1 h infusion every 3 weeks. APL blood concentrations are analysed by liquid chromatography-tandem mass spectrometry. […] An open 2-compartment model fits appropriately most profiles after 24 h infusion. For 1 h infusions a 3-compartment model provides a better fit in most cases. Obtained plasma levels are known to be active in vitro. Evaluation of additional patients, and a comparison of blood cells and plasma PK is ongoing.

[5] = system: CT-1, CT-2 and HT-29 cell lines; conditions: cited from earlier work
lewis lung carcinomas = conditions: cited from earlier work
prostate tumour = conditions: 1.25 mg/kg; cited from earlier work
[6] = DL V, 2000 mcg/m^2/wk, 3 patients
[7] = DL VI, 3000 mcg/m^2/wk, 3 patients
[8] = DL VII (MTD), 4500 mcg/m^2/wk, 4 patients
[9] = DL VIII (RD), 3750 mcg/m^2/wk, 13 patients

aplidine
IC30 [1]: 450 pM
activity of transfected VEGF promoter, in words (VEGF promoter): dose not decrease the activity of VEGF promoter; also recorded: did not decrease the transcription of VEGF
apoptosis (MOLT-4): strong apoptosis
LD50 (cardiac H9 c2 (2-1)): 1 µM
LD50 (kidney (NRK-52E) cells): 0.1 nM
LD50 (liver (AML-12)): 1 µM
LD50 [2]: 0.1 µM
LD50 (skeletal muscle (L8)): 0.1 nM
evaluable patients with DLT ([3]; 4500 mcg/m^2/wk): 2 out of 3
Recommended Dose ([3]; 24 h infusion weekly x3 q4wk): 3750 μg/m^2/wk×3
Inj. Site reaction G2 (worst toxicity per patient) ([3]; DL II, 266 mcg/m^2/wk, 3 patients): 1
Asthenia G2 (worst toxicity per patient) ([3]; DL III, 532 mcg/m^2/wk, 3 patients): 1
Inj. Site reaction G2 (worst toxicity per patient) ([3]; DL IV, 1000 mcg/m^2/wk, 3 patients): 1
Inj. Site reaction G2 (worst toxicity per patient) [3, 6]: 1
Nausea G2 (worst toxicity per patient) [3, 6]: 1
Asthenia G2 (worst toxicity per patient) [3, 7]: 1
Asthenia G3 (worst toxicity per patient) [3, 7]: 1
Inj. Site reaction G2 (worst toxicity per patient) [3, 7]: 1
Nausea G3 (worst toxicity per patient) [3, 7]: 1
Asthenia G2 (worst toxicity per patient) [3, 8]: 1
CPK elevation G4 (worst toxicity per patient) [3, 8]: 1
Inj. Site reaction G2 (worst toxicity per patient) [3, 8]: 1
Myositis G3 (worst toxicity per patient) [3, 8]: 1
Transaminitis G3 (worst toxicity per patient) [3, 8]: 1
Asthenia G2 (worst toxicity per patient) [3, 9]: 3
Hypersensitivity G3 (worst toxicity per patient) [3, 9]: 1
Inj. Site reaction G2 (worst toxicity per patient) [3, 9]: 3
Nausea G2 (worst toxicity per patient) [3, 9]: 2
Transaminitis G3 (worst toxicity per patient) [3, 9]: 2
Transaminitis G4 (worst toxicity per patient) [3, 9]: 1
plasma levels ([3]; DLs 1000 and 2000 mcg/m^2/w): ~1 ng/mL
dose limiting toxicities (DLTs) ([3]; Example 3: 16 patients, 133-3000 mcg/m^2/wk x3): No dose limiting toxicities
Maximum Tolerated Dose ([3]; Example 4): 4500 μg/m^2/wk×3
elimination t ½ ([3]; Example 4, preliminary data): 10 to 24 h
plasma levels ([3]; Example 4, preliminary data): > 1 ng/mL
MTD ([3]; Example 11): 4500 mcg/m^2/wk
recommended dose for future trials ([3]; Example 11, central vein catheter): 3750 mcg/m^2/wk×3
MTD ([3]; Example 12): 4500 mcg/m^2/week×3
haematological toxicity ([3]; Example 12): No haematological toxicity
recommended dose for future trials ([3]; Example 12): 3750 mcg/m^2/week×3
maintained plasma levels ([3]; doses ≧3000 mcg/m^2): > 1 ng/mL
Blood cell accumulation as compared to plasma ([3]; in vivo): 2-8 fold
dose from which potentially active plasma levels are reached ([3]; in vivo): ≥ 2000 mcg/m^2
coefficient of variation of clearance (Cl) ([3]; interpatient variability): 45%
Vss ([3]; median (quartiles)): 611 L and 611 (434-733) L
clearance (Cl) ([3]; median (quartiles)): 0.47 L/min and 0.47 (0.40-0.56) L/min
elimination t ½ ([3]; median (quartiles)): 18.8 h and 18.8 (15.3-25.4) h
elimination half lives [4]: 10 to 24 h
volume of distribution [4]: > 200 L/m^2
cytotoxic activity [5]: dose-dependent cytotoxic activity
activity in SC implanted tumour (lewis lung carcinomas): active
T/C (prostate tumour): 25%
